Assay results reported in ChEMBL document CHEMBL3885861, “Open TG-GATES”.

Organism: Rattus norvegicus
Assay: Open TG-GATES - Regimen: Single
Assay type: toxicity, organism-based, Sprague-Dawley
Design: regimen Single, gender Male, age 6 weeks
Conditions: in vivo, po, route gavage; for Bas / Eos / Ht / Lym / MCH / Mono / Neu / RBC / Ret: tissue Blood; for KIDNEY_L / KIDNEY_R / KIDNEY_TOTAL: tissue Kidney; for ALP / ALT / AST / CRE / DBIL / IP / K / LDH / Na / PL / RALB / TBIL / TC / TG / TP / gamma-GTP / Ca: tissue Plasma; for LIVER: tissue Liver
[1] = 0 mg/kg, 3 h, dose level Control
[2] = 0 mg/kg, 6 h, dose level Control
[3] = 0 mg/kg, 9 h, dose level Control
[4] = 0 mg/kg, 24 h, dose level Control
[5] = 200 mg/kg, 24 h, dose level Low

## COc1cc2ncnc(Nc3ccc(F)c(Cl)c3)c2cc1OCCCN1CCOCC1 [GEFITINIB]
[1]
  TERMINAL_BW: 216 g
  Bas: 0%
  Eos: 0.8%
  Ht: 39.6%
  Lym: 74.2%
  MCH: 21.5 pg
  Mono: 2.6%
  Neu: 21.8%
  RBC: 610.2 x10_4/ul
  Ret: 9.3%
  KIDNEY_L: 0.9 g
  KIDNEY_R: 0.9 g
  KIDNEY_TOTAL: 1.8 g
  ALP: 1581.8 IU/L
  ALT: 42.2 IU/L
  AST: 73.2 IU/L
  CRE: 0.2 mg/dL
  DBIL: 0 mg/dL
  IP: 8.2 mg/dL
  K: 4.1 meq/L
  LDH: 183.2 IU/L
  Na: 143.1 meq/L
  PL: 148.6 mg/dL
  RALB: 3.9 g/dL
  TBIL: 0.02 mg/dL
  TC: 85.4 mg/dL
  TG: 64.2 mg/dL
  TP: 5.5 g/dL
  gamma-GTP: 1.1 IU/L
[2]
  TERMINAL_BW: 212.6 g
  Bas: 0%
  Eos: 0.8%
  Ht: 40.1%
  Lym: 83.6%
  MCH: 21.4 pg
  Mono: 2.4%
  Neu: 12.8%
  RBC: 623.6 x10_4/ul
  Ret: 9.7%
  KIDNEY_L: 0.9 g
  KIDNEY_R: 1 g
  KIDNEY_TOTAL: 1.9 g
  LIVER: 9.6 g
  ALP: 1643.4 IU/L
  ALT: 41.2 IU/L
  AST: 71 IU/L
  CRE: 0.1 mg/dL
  Ca: 10.6 mg/dL
  DBIL: 0.002 mg/dL
  IP: 9.6 mg/dL
  K: 4.2 meq/L
  LDH: 200.6 IU/L
  Na: 142.5 meq/L
  PL: 158.8 mg/dL
  RALB: 3.9 g/dL
  TBIL: 0.018 mg/dL
  TC: 90.8 mg/dL
  TG: 78.2 mg/dL
  TP: 5.4 g/dL
  gamma-GTP: 1 IU/L
[3]
  TERMINAL_BW: 210 g
  Bas: 0%
  Eos: 1%
  Ht: 38.5%
  Lym: 77.6%
  MCH: 21.3 pg
  Mono: 3.4%
  Neu: 17.6%
  RBC: 601.2 x10_4/ul
  Ret: 9.4%
  KIDNEY_L: 1 g
  KIDNEY_R: 0.9 g
  KIDNEY_TOTAL: 1.9 g
  LIVER: 9 g
  ALP: 1562.4 IU/L
  ALT: 35.2 IU/L
  AST: 67.2 IU/L
  CRE: 0.1 mg/dL
  DBIL: 0.004 mg/dL
  IP: 10 mg/dL
  K: 4.2 meq/L
  LDH: 169 IU/L
  Na: 143.4 meq/L
  PL: 139.6 mg/dL
  RALB: 3.9 g/dL
  TBIL: 0.022 mg/dL
  TC: 81.6 mg/dL
  TG: 67.3 mg/dL
  TP: 5.4 g/dL
  gamma-GTP: 1 IU/L
[4]
  TERMINAL_BW: 223.4 g
  Bas: 0%
  Eos: 1%
  Ht: 39.9%
  Lym: 78.5%
  MCH: 20.8 pg
  Mono: 3.5%
  Neu: 16%
  RBC: 619.8 x10_4/ul
  Ret: 8.2%
  KIDNEY_L: 1 g
  KIDNEY_R: 1 g
  KIDNEY_TOTAL: 1.9 g
  LIVER: 10.6 g
  ALT: 44.5 IU/L
  AST: 75.8 IU/L
  CRE: 0.2 mg/dL
  Ca: 10.8 mg/dL
  DBIL: 0 mg/dL
  IP: 7.4 mg/dL
  K: 4.4 meq/L
  LDH: 145.5 IU/L
  Na: 142.1 meq/L
  PL: 149.5 mg/dL
  RALB: 4.2 g/dL
  TBIL: 0.01 mg/dL
  TC: 79 mg/dL
  TG: 122.7 mg/dL
  TP: 5.7 g/dL
  gamma-GTP: 1.3 IU/L
200 mg/kg, 3 h, dose level Low
  TERMINAL_BW: 214.5 g
  Bas: 0%
  Eos: 0.8%
  Ht: 36.1%
  Lym: 74.4%
  MCH: 20.9 pg
  Mono: 3%
  Neu: 21.4%
  RBC: 577.2 x10_4/ul
  Ret: 8.9%
  KIDNEY_L: 1 g
  KIDNEY_R: 1 g
  KIDNEY_TOTAL: 2 g
  LIVER: 9.2 g
  ALP: 1618.4 IU/L
  ALT: 52 IU/L
  AST: 82.8 IU/L
  CRE: 0.1 mg/dL
  Ca: 9.9 mg/dL
  DBIL: 0.016 mg/dL
  IP: 9.2 mg/dL
  K: 4.1 meq/L
  LDH: 220.4 IU/L
  Na: 141.6 meq/L
  PL: 147.4 mg/dL
  RALB: 3.8 g/dL
  TBIL: 0.066 mg/dL
  TC: 97 mg/dL
  TG: 39.9 mg/dL
  TP: 5.3 g/dL
  gamma-GTP: 0.9 IU/L
200 mg/kg, 6 h, dose level Low
  TERMINAL_BW: 210.7 g
  Bas: 0%
  Eos: 0.6%
  Ht: 37.3%
  Lym: 79.4%
  MCH: 21.5 pg
  Mono: 3.6%
  Neu: 15.8%
  RBC: 579.2 x10_4/ul
  Ret: 9.1%
  KIDNEY_L: 0.9 g
  KIDNEY_R: 0.9 g
  KIDNEY_TOTAL: 1.9 g
  LIVER: 8.9 g
  ALP: 1407.4 IU/L
  ALT: 53.8 IU/L
  AST: 78.6 IU/L
  CRE: 0.2 mg/dL
  Ca: 9.9 mg/dL
  DBIL: 0.018 mg/dL
  IP: 9.6 mg/dL
  K: 4 meq/L
  LDH: 142.6 IU/L
  Na: 141.5 meq/L
  PL: 142.8 mg/dL
  RALB: 3.9 g/dL
  TBIL: 0.076 mg/dL
  TC: 93 mg/dL
  TG: 31.4 mg/dL
  TP: 5.4 g/dL
  gamma-GTP: 0.9 IU/L
200 mg/kg, 9 h, dose level Low
  TERMINAL_BW: 210 g
  Bas: 0%
  Eos: 0.6%
  Ht: 38.5%
  Lym: 78.4%
  MCH: 20.9 pg
  Mono: 3.2%
  Neu: 17.2%
  RBC: 611 x10_4/ul
  Ret: 8.8%
  KIDNEY_L: 0.9 g
  KIDNEY_R: 0.9 g
  KIDNEY_TOTAL: 1.8 g
  LIVER: 8.6 g
  ALP: 1488 IU/L
  ALT: 48.2 IU/L
  AST: 78.4 IU/L
  CRE: 0.2 mg/dL
  Ca: 9.9 mg/dL
  DBIL: 0.01 mg/dL
  IP: 9.5 mg/dL
  K: 4.3 meq/L
  Na: 143.6 meq/L
  PL: 146 mg/dL
  RALB: 3.8 g/dL
  TBIL: 0.048 mg/dL
  TC: 93.6 mg/dL
  TG: 39 mg/dL
  TP: 5.4 g/dL
  gamma-GTP: 1.1 IU/L
[5]
  TERMINAL_BW: 215.5 g
  Bas: 0%
  Eos: 0.8%
  Ht: 40.7%
  Lym: 66%
  MCH: 20.6 pg
  Mono: 4%
  Neu: 28.6%
  RBC: 635 x10_4/ul
  Ret: 8.2%
  KIDNEY_L: 1 g
  KIDNEY_R: 1 g
  KIDNEY_TOTAL: 2 g
  LIVER: 9.5 g
  ALP: 1548.6 IU/L
  ALT: 39.6 IU/L
  AST: 72.8 IU/L
  CRE: 0.2 mg/dL
  Ca: 10.7 mg/dL
  DBIL: 0.004 mg/dL
  IP: 8.6 mg/dL
  K: 4.4 meq/L
  LDH: 215.2 IU/L
  Na: 142.9 meq/L
  PL: 166 mg/dL
  RALB: 4 g/dL
  TBIL: 0.022 mg/dL
  TG: 69.4 mg/dL
  TP: 5.5 g/dL
  gamma-GTP: 1.2 IU/L
600 mg/kg, 3 h, dose level Middle
  TERMINAL_BW: 215 g
